Measurements reported in article PMC11272598, “RG7774 (Vicasinabin), an orally bioavailable cannabinoid receptor 2 (CB2R) agonist, decreases retinal vascular permeability, leukocyte adhesion, and ocular inflammation in animal models” (Frontiers in Pharmacology, 2024).
Values joined by “and” are separate entries in the source; they are usually repeats but may differ in a detail not shown here. Identical values can stand only once. Like-named read-outs stand apart in the source and are kept apart here.

How the values were obtained:
human CB2R = molecular target: T1, human CB2R (Homo sapiens, UniProt P34972); assay: Forskolin-stimulated cAMP assay in CHO cells; assay type: cell-based
T1 construct: bgal (beta-galactosidase fragment of the PathHunter system); host or cells: CHO-K1
Description: (§1) The inhibitory effects of RG7774 on forskolin-stimulated accumulation of cAMP were determined using the cAMP-Nano-TRF detection kit (Roche Diagnostics, Penzberg, Germany), as previously described ([Porter et al., 2019]). CHOK1hCB1_bgal, CHOK1mCB2_bgal, and CHOK1hCB2_bgal cells (DiscoveRx, Fremont, CA, United States) were seeded 17–24 h prior to the experiment at a density of 3 × 10^4 cells per well in a black 96-well plate with a flat, clear bottom (Corning, Wiesbaden, Germany) prior to incubating in 5% CO2 at 37°C in a humidified incubator. The growth medium was exchanged with Krebs Ringer bicarbonate buffer containing 1 mM IBMX and 0.1% fatty acid-free BSA and incubated at 30°C for 1 h. RG7774 or positive control (CP55940) (1 µM) was added to a 0.1 mL final assay volume and the mixture was incubated at 30°C for 30 min. The assay was stopped by adding 50 μL 3x lysis reagent and shaking for 2 h at RT. The time-resolved energy transfer was measured using an LF502 Nanoscan FLT (IOM, Berlin, Germany) equipped with a laser excitation source. cAMP content was determined from a standard curve spanning 10–0.13 nM cAMP. Efficacies were expressed as a percentage relative to the positive control.

recombinant mouse CB2R = molecular target: T2, recombinant mouse CB2R (Mus musculus, UniProt P47936); assay: Forskolin-stimulated cAMP assay in CHO cells; assay type: cell-based
T2 construct: bgal (beta-galactosidase fragment of the PathHunter system); host or cells: CHO-K1
Description: as §1

Human MAGL = molecular target: T3, Human MAGL (Homo sapiens, UniProt Q99685); assay: Human MAGL assay (U937 cell extracts); assay type: biochemical; conditions: RG7774 10 µM; read-out: Mean ± SEM % inhibition of control, Human MAGL
T3 construct: Mouse brain or human U937 cell extracts (ATCC, Manassas, VI, USA); host or cells: U937 cells, 100,000 g supernatant
Description: The final supernatant was incubated with [^3H]-2-OG (10 µM) (ARC, MO, USA) at 37°C for 30 min as previously described, and reactions were stopped with a 2:1 (v/v) mixture of chloroform/methanol. [^3H]-glycerol release in the aqueous phase was measured by scintillation counting. […] Human supernatant (100 µg) was preincubated for 15 min at RT with 8 different concentrations of RG7774 (0.1-500 µM) in the incubation medium.

Hepatocyte clearance = assay type: in vitro ADME; conditions: read-out: Hepatocyte CL
Description: For animals, hepatocyte suspension cultures were either freshly prepared by liver perfusion or from cryopreserved hepatocyte batches (BioIVT, NY, USA). For humans, commercially-available, pooled (5–20 donors), cryopreserved human hepatocytes from nontransplantable liver tissues were used (BioIVT). Suspension cultures were incubated in Nunc U96 PP-0.5 mL plates (Nunc Natural, 267245) in a Thermo Forma incubator (Fischer Scientific, Wohlen, Switzerland) equipped with Variomag® Teleshake shakers (Sterico, Wangen, Switzerland) to maintain cell dispersion. The cell culture medium was William’s media supplemented with glutamine, antibiotics, insulin, dexamethasone, and 10% FCS. RG7774 (1 μM) were incubated in 96-well plates containing suspension cultures (1 × 10^6 hepatocytes/mL [~1 mg/mL protein concentration]), with each well containing a total volume of 100 μL. Plates were shaken at 900 rpm for up to 2 h in 5% CO2 at 37 °C. Reactions were quenched after 3, 6, 10, 20, 40, 60, and 120 min with 200 μL methanol containing an internal standard. Samples were cooled, centrifuged, and analyzed by LC-MS/MS. Log peak area ratios (test compound peak area/internal standard peak area) or concentrations were plotted against incubation time using a linear fit to the data with emphasis on the initial rate of compound disappearance.

P-gp [1] = molecular target: T4, P-gp (Homo sapiens, UniProt P08183); assay: P-gp assay in transfected LLC-PK1 cells; assay type: in vitro ADME
T4 construct: host or cells: LLC-PK1 (porcine kidney epithelial) cells
Description: (§2) The P-gp assay was conducted as previously described. Briefly, transfected porcine kidney epithelial (LLC-PK1) cells expressing human or mouse P-gp were cultured on 96-well semi-permeable filter membrane plates (Millipore, Darmstadt, Germany). LLC-PK1 cells were provided by Dr A. Schinkel from The Netherlands Cancer Institute (Amsterdam, The Netherlands). Cells formed a polarized monolayer with tight junctions that acted as a barrier between apical and basolateral compartments. P-gp was expressed in the apical-facing membrane of the monolayer (tightness confirmed using Lucifer yellow). […] The effect of P-gp was measured by expressing the efflux ratio of the unidirectional A > B and B > A Papp values. The mean permeability (A > B and B > A Papp) was determined in the absence of P-gp via the addition of the selective P-gp inhibitor, zosuquidar.

P-gp [2] = molecular target: T5, P-gp (Mus musculus, UniProt P21447); assay: P-gp assay in transfected LLC-PK1 cells; assay type: in vitro ADME
T5 construct: host or cells: LLC-PK1 (porcine kidney epithelial) cells
Description: as §2

GAL2 = GAL2 (Homo sapiens, UniProt O43603); assay type: binding
Excerpt: Supplement Table1.docx, table 3: Supplementary Table S3. RG7774 binding to non-CB1R/CB2R receptors, ion channels, transporters, and enzymes (CEREP, Celle l’Evescault, France; http://www.cerep.fr). | column: % inhibition of control SB (n = 2)

T1 sequence (P34972 whole entry, the tested form may be a part): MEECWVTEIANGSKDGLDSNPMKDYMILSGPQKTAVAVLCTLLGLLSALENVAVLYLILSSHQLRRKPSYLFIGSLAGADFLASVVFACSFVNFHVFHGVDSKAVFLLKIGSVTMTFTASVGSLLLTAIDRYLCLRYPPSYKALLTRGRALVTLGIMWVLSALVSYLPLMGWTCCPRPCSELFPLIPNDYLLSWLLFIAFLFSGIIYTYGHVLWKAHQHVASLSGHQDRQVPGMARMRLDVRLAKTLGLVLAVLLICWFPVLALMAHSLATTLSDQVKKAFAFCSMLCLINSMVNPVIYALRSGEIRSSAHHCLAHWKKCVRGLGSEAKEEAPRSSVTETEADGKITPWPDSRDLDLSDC
T2 sequence (P47936 whole entry, the tested form may be a part): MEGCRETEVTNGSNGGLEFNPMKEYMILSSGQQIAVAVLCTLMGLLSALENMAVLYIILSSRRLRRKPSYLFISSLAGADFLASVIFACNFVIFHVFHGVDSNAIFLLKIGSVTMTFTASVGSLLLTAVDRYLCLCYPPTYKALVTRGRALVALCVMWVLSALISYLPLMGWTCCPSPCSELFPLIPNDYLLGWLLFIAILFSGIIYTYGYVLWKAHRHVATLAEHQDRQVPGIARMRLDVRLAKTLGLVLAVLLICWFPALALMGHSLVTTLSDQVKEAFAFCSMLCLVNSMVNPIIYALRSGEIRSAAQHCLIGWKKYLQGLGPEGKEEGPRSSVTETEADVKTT
T4 sequence (P08183 whole entry): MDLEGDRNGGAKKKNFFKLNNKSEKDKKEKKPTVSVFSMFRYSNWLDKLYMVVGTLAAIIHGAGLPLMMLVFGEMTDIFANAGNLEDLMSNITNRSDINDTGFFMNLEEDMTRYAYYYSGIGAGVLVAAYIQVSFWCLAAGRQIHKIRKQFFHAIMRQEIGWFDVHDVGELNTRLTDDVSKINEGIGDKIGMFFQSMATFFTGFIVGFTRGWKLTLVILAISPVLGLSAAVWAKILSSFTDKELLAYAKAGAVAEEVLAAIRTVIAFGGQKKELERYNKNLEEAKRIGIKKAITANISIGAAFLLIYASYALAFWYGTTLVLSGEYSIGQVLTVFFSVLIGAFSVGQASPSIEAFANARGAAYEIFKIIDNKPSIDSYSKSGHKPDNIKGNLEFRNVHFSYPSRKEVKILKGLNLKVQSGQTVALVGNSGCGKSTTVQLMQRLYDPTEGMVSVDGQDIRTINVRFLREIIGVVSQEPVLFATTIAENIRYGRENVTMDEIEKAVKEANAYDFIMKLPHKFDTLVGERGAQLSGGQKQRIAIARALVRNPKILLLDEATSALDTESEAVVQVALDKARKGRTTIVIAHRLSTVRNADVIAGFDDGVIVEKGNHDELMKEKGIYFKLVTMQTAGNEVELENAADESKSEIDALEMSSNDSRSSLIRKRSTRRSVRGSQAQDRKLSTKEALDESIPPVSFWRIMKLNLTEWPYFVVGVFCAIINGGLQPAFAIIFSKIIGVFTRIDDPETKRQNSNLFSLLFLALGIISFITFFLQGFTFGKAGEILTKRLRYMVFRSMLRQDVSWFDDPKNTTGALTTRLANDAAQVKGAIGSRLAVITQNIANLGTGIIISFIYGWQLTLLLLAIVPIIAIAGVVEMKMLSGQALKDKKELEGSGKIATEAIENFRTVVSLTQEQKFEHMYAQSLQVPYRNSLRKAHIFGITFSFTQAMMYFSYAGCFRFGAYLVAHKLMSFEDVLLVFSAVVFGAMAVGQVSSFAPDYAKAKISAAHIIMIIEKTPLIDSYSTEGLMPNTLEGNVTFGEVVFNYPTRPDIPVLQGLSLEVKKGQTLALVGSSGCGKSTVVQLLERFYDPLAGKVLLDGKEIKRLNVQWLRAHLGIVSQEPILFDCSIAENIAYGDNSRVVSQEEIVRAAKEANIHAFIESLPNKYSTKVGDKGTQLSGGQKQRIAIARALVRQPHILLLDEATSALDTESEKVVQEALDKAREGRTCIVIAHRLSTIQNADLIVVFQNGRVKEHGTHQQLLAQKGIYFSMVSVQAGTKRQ
GAL2, sequence (O43603 whole entry): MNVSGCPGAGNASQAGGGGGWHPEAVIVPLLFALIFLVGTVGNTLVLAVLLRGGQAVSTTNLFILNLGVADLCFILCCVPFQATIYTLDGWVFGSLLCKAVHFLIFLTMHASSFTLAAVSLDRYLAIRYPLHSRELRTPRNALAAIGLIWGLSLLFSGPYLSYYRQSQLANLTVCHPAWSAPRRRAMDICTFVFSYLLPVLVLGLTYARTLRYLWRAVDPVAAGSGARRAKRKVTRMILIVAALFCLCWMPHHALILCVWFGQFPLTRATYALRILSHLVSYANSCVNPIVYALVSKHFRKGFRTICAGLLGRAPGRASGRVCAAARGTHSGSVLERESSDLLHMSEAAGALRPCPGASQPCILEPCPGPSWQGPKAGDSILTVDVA
T5 sequence (P21447 whole entry): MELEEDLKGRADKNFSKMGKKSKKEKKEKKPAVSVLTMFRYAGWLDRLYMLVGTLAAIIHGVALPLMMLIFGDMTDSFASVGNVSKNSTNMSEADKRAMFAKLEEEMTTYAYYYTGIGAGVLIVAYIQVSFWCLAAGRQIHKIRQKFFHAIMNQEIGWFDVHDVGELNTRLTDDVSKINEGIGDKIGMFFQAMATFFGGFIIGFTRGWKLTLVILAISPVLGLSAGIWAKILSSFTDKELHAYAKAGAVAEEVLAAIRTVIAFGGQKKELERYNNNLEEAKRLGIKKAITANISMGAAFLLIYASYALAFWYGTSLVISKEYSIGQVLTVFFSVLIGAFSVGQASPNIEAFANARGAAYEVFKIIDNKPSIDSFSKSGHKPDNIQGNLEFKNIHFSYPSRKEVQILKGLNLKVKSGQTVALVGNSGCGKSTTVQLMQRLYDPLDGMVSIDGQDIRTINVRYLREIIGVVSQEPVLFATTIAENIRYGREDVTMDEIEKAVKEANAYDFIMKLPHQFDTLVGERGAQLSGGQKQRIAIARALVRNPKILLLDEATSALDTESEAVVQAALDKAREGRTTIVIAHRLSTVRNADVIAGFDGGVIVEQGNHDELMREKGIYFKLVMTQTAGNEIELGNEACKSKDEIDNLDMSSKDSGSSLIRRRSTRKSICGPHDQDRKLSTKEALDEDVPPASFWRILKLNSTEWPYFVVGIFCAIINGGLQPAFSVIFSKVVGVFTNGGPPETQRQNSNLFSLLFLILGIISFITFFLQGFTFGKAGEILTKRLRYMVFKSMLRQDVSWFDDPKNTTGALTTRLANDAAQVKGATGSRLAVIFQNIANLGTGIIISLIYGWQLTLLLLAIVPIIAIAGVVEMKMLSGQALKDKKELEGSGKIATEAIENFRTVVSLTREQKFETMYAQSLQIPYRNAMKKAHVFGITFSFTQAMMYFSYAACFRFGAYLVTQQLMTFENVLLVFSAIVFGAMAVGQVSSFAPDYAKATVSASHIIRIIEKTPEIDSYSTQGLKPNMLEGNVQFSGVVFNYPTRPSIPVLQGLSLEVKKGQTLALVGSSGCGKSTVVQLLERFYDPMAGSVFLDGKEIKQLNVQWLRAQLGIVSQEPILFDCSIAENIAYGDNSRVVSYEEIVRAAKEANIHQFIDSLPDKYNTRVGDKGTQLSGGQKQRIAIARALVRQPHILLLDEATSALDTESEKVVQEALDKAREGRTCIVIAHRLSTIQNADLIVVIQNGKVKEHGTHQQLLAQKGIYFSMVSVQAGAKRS
T3 sequence (Q99685 whole entry): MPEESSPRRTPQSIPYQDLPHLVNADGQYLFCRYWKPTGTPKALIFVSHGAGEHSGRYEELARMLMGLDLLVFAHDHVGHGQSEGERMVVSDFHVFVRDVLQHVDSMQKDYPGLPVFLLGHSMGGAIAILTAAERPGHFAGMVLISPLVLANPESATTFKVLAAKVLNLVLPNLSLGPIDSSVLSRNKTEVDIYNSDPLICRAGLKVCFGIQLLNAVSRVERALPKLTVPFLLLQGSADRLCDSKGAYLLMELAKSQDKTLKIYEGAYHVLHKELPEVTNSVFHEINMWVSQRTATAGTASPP

## Cn1nnnc1Cn1nnc2c(N3CC[C@H](O)C3)nc(C(C)(C)C)nc21 [RG7774, (S)-1-(5-tert-butyl-3-[(1-methyl-1H-tetrazol-5-yl)methyl]-3H-[1,2,3]triazolo[4,5-d]pyrimidin-7-yl)pyrrolidin-3-ol]
Human CB2R; EC50, inhibition of forskolin-induced cAMP, human CB2R, recombinant CHO cells
  EC50: 2.8 nM and 2.81 nM
Human CB2R; cAMP assays
  functional affinity for human CB2R over CB1R: > 3,600 fold
Human CB2R; cAMP, CHO cells
  efficacy compared to maximum efficacy of CP55940, human CB2R: full agonist
Recombinant mouse CB2R
  EC50: 2.6 ± 0.14 nM
Recombinant mouse CB2R; cAMP, CHO cells
  efficacy compared to maximum efficacy of CP55940, mouse CB2R: full agonist
Human MAGL
  inhibition at 10 µM: -9.7%
Hepatocyte clearance; human, pooled cryopreserved human hepatocytes in suspension
  hepatocyte CLint at 1 µM: 1.7 µL/min/1e6 cells
Hepatocyte clearance; mouse
  hepatocyte CLint at 1 µM: 49.3 µL/min/1e6 cells
Hepatocyte clearance; rat
  hepatocyte CLint at 1 µM: 37.9 µL/min/1e6 cells
P-gp [1]
  efflux ratio at 3 h: 2.5
P-gp [2]
  efflux ratio at 3 h: 16.2
GAL2
  % inhibition of control SB (n = 2): –4.0%
